Earlier results, collected in patent publication US6334999B1, “Liposomal aerosols for delivery of chemotherapeutic retinoids to the lungs” (Research Development Foundation, priority 1999, dated 2002).

Conditions: mouse, in vivo

Which “dose exerting toxic effects” value does the source give for `CC1=C(/C=C/C(C)=C/C=C/C(C)=C/C(=O)O)C(C)(C)CCC1` [free ATRA, all-trans-retinoic acid] here?
Its value is 25-30 mg/kg of body weight.
